Assay results taken from patent publication US12703679B2, “Sulfone compounds and pharmaceutical compositions thereof, and their therapeutic applications” (Cura Therapeutics, LLC, priority 2019, dated 2026).

What was measured:
[1] = tested on: Aß40 in CSF; assay: Reduction of Aß40 in CSF of Sprague Dawley rats after single dose intravenous and oral administration; assay type: in vivo
Procedure: This non-GLP study had two groups that received compound A1 by intravenous (IV) and oral (PO) administration with 3-6 male rats in each group. Rats received an IV dose of compound A1 at 1 mg/kg. Rats received a PO dose of compound A1 at 10 mg/kg. Plasma samples were collected pre-dose, 0.167 (10 min), 0.5, 1, 2, 4, 6, 8, 12, and 24 h post-dose. CSF samples were collected pre-dose, 0.5, 1, 2, 4, 8, 12, and 24 hours post-dose.

[2] = tested on: Aß40; assay: Attenuating the amyloid β40 level in neurons differentiated from familial Alzheimer's disease patient iPSCs (ELISA); assay type: cell-based, human; settings: 10 μM test compound, FIG. 3
Procedure: Induced pluripotent stem cells from a familial Alzheimer's disease patient carrying a duplication of the amyloid precursor protein gene were differentiated to neurons using standard protocols. Israel et al., Nature 2012, 482, 216-220. Neural precursor cells were plated on 24-well plates and differentiated to neurons over three weeks. There was an exponential increase in the levels of Aß secreted in these cells starting on Day 4 in culture. […]

For `Cc1ccc(C(F)(F)F)cc1CS(=O)(=O)c1cccc(C(=O)O)c1` [Compound A1, 3-((2-methyl-5-(trifluoromethyl)benzyl)sulfonyl)benzoic acid], the “reduction of Aß40 in CSF” value ([1]; single IV dose 1 mg/kg, rats, by 4 h post administration, FIG. 5) was 20-60%, the “time Aß40 levels in CSF remained lower than starting levels” value ([1]; single PO dose 10 mg/kg, male rats, FIG. 4) was “up to 24 h” and the “decrease of Aß40 in CSF” value ([1]; single PO dose 10 mg/kg, male rats, by 2 h post administration, FIG. 4) was “up to 50%”.
`COc1cc(CS(=O)(=O)c2cccc(C(=O)O)c2)cc(OC)c1` [Compound A2, 3-((3,5-dimethoxybenzyl)sulfonyl)benzoic acid] was tested, and the “decrease of Aß40 relative to untreated cells (PBS)” value ([2]; daily treatment, by Day 6 of treatment, iPSC-derived neurons) was “greater than 30%” and the “reduction of Aß40 relative to untreated cells (PBS)” value ([2]; within 24 h, iPSC-derived neurons (APP gene duplication)) was 20%.
